Legend:
[1] = tested on: patients with cirrhosis and overt HE episodes; assay: Rates of commonly-occurring infections and antibiotic use in cirrhotic patients with HE on long-term rifaximin; type: in vivo
Description: Cirrhosis patients can have an increased risk of infections and subsequent hospitalizations, leading to increased mortality. […] A description of the OLM and RCT can be found in WO 2011/005388, “METHODS OF TREATING HEPATIC ENCEPHALOPATHY,” which is incorporated herein by reference in its entirety. In the analysis below, the effect of long term RFX treatment on infection rates and antibiotic use was examined.
Patients with cirrhosis and ≧2 overt HE episodes within 12 months were enrolled in the RCT (RFX=140; placebo [PBO]=159); 170 new patients, in addition to 70 RFX and 82 PBO patients who rolled over from the RCT were enrolled in OLM. The “All RFX group” (n=392) consisted of RFX-treated patients in both studies. Infection rates per person exposure years (PEY) were compared across RCT and All RFX groups, and antibiotic use over time was examined.
In the 6 month RCT, RFX exposure was 50 PEY vs 46 PEY in the PBO group. Long term RFX exposure was for median =427 (2-1427) days, or 510 PEY.

[2] = tested on: C. difficile infection (CDI); assay: CDI trial: enteric symptoms at TOC; type: in vivo, human
Description: Table 41 sets forth a summary of the enteric symptoms at TOC.

subjects with d-IBS [3] = assay: Designed study of 14-day oral rifaximin 550 mg TID in d-IBS (Example 2); type: in vivo, human; conditions: oral rifaximin 550 mg TID 14 days
Description: A measure of efficacy is based on subjects' answers to the Weekly Subject Global Assessment (SGA) questions over the 4 week study duration in relation to their IBS symptoms.

[4] = tested on: patients with non-constipation IBS (non-C IBS); assay: Adverse events and discontinuation, rifaximin 550 mg TID study; type: in vivo, human; conditions: 550 mg rifaximin TID
[5] = tested on: C. difficile infection (CDI); assay: CDI trial: number of unformed stools during the treatment period; type: in vivo, human
Description: FIG. 18 sets for the average number of unformed stools per day of the study.

[6] = tested on: patients with diarrhea-predominant IBS; assay: IBS-QOL questionnaire, rifaximin 550 mg BID vs placebo in d-IBS; type: in vivo, human
Description: Both groups received placebo for an additional 14 days after the initial 2-week treatment. Quality of life was assessed with the 34-item IBS-QOL questionnaire at baseline and 4 weeks after initiating treatment. Each item was scored on a 5-point scale (1=not at all; 2=slightly; 3=moderately; 4=quite a bit; and 5=extremely or a great deal). Results for composite and subscale scores were converted to a scale ranging from 0 to 100, with higher scores indicating better QOL.
Following a 2-week initial treatment period, both groups of patients received placebo for an additional 14 days. Quality of life was assessed via the 34-item IBS-QOL questionnaire at baseline and 4 weeks after initiating treatment. Each item was scored on a 5-point scale (1=not at all; 2=slightly; 3=moderately; 4=quite a bit; 5=extremely or a great deal); results for composite and subscale scores were converted to a scale ranging from 0 to 100, with higher scores indicating better QOL.

subjects with d-IBS [7] = assay: Adequate relief of IBS symptoms and bloating (weekly yes/no questions), rifaximin BID study in d-IBS; type: in vivo, human; conditions: aIBS
[8] = Rifaximin N = 108, Vancomycin N = 111

CO[C@H]1/C=C/O[C@@]2(C)Oc3c(C)c(O)c4c(O)c(c5c(nc6cc(C)ccn65)c4c3C2=O)NC(=O)/C(C)=C\C=C\[C@H](C)[C@H](O)[C@@H](C)[C@@H](O)[C@@H](C)[C@H](OC(C)=O)[C@@H]1C [Rifaximin, (2S,16Z,18E,20S,21S,22R, 23R,24R,25S,26S,27S,28E)-5,6,21,23,25 Pentahydroxy-27-methoxy-2,4,11,16,20,22,24,26-octamethyl-2,7-(epoxypentadeca-(1,11,13)trienimino) benzofuro (4,5-e) pyrido(1,2,-a) benzimidazole-1,15(2H)-dione,25-acetate]
C. difficile infection, rate ([1]; All RFX Patients (n = 392), PEY = 510): (0.012) number of subjects/PEY
C. difficile infection, rate ([1]; RCT Patients, RFX (n = 140), PEY = 50): (0.040) number of subjects/PEY
Any infection, rate ([1]; human, in vivo): (0.072) number of subjects/PEY
Diarrhea: No, number of subjects [2, 8]: 86
Diarrhea: No, percent of subjects [2, 8]: (80%)
Diarrhea: Yes, number of subjects [2, 8]: 22
Diarrhea: Yes, percent of subjects [2, 8]: (20%)
Fever: No, number of subjects [2, 8]: 98
Fever: No, percent of subjects [2, 8]: (91%)
Fever: Yes, number of subjects [2, 8]: 10
Fever: Yes, percent of subjects [2, 8]: (9%)
Severe Abdominal Pain/Discomfort: No, number of subjects [2, 8]: 80
Severe Abdominal Pain/Discomfort: No, percent of subjects [2, 8]: (74%)
Severe Abdominal Pain/Discomfort: Yes, number of subjects [2, 8]: 28
Severe Abdominal Pain/Discomfort: Yes, percent of subjects [2, 8]: (26%)
Diarrhea: Treatment Difference ([2]; Rifaximin vs Vancomycin): −1.5%
Fever: Treatment Difference ([2]; Rifaximin vs Vancomycin): −7.5%
Severe Abdominal Pain/Discomfort: Treatment Difference ([2]; Rifaximin vs Vancomycin): −11.5%
Answers to weekly SGA question on adequate relief of IBS symptom of bloating (subjects with d-IBS [3]): respond “Yes” more often
Answers to weekly SGA question on adequate relief of IBS symptoms (subjects with d-IBS [3]): respond “Yes” more often
Subjects with skin or subcutaneous tissue disorders [4]: 1.3%
Adjusted mean number of unformed stools-ANOVA: Treatment Difference (95% CI) ([5]; Rifaximin vs Vancomycin, treatment period): 0.46 (−0.08, 1.00)
Overall treatment difference in number of unformed stools-Mixed Model: Treatment Difference (95% CI) ([5]; Rifaximin vs Vancomycin, mixed effects model with treatment, center, study day as fixed effects): 0.32 (−0.08, 0.72)
Adjusted mean number of unformed stools-ANOVA ([5]; during the treatment period, ANOVA model with treatment and center as main effects, Rifaximin N = 117, Vancomycin N = 115): 2.36
Mean Change From Baseline in IBS-QOL Scores at Week 4: Body image ([6]; Rifaximin 1100 mg/d (n = 191)): 20.1
Mean Change From Baseline in IBS-QOL Scores at Week 4: Dysphoria ([6]; Rifaximin 1100 mg/d (n = 191)): 24.8
Mean Change From Baseline in IBS-QOL Scores at Week 4: Food avoidance ([6]; Rifaximin 1100 mg/d (n = 191)): 25.0
Mean Change From Baseline in IBS-QOL Scores at Week 4: Health worry ([6]; Rifaximin 1100 mg/d (n = 191)): 16.0
Mean Change From Baseline in IBS-QOL Scores at Week 4: Interference with activity ([6]; Rifaximin 1100 mg/d (n = 191)): 22.2
Mean Change From Baseline in IBS-QOL Scores at Week 4: Relationship ([6]; Rifaximin 1100 mg/d (n = 191)): 14.9
Mean Change From Baseline in IBS-QOL Scores at Week 4: Sexual ([6]; Rifaximin 1100 mg/d (n = 191)): 13.6
Mean Change From Baseline in IBS-QOL Scores at Week 4: Social reaction ([6]; Rifaximin 1100 mg/d (n = 191)): 17.3
Mean Change From Baseline in IBS-QOL Scores at Week 4: Overall score ([6]; Rifaximin 1100 mg/d (n = 191), scale 0 to 100): 20.4
Improvement with rifaximin over placebo, IBS-QOL: Body image ([6]; Week 4, 1100 mg/d): 37.4%
Improvement with rifaximin over placebo, IBS-QOL: Dysphoria ([6]; Week 4, 1100 mg/d): 25.3%
Improvement with rifaximin over placebo, IBS-QOL: Food avoidance ([6]; Week 4, 1100 mg/d): 22.1%
Improvement with rifaximin over placebo, IBS-QOL: Health worry ([6]; Week 4, 1100 mg/d): 30.6%
Improvement with rifaximin over placebo, IBS-QOL: Interference with activity ([6]; Week 4, 1100 mg/d): 22.2%
Improvement with rifaximin over placebo, IBS-QOL: Overall score ([6]; Week 4, 1100 mg/d): 28.7%
Improvement with rifaximin over placebo, IBS-QOL: Relationship ([6]; Week 4, 1100 mg/d): 39.5%
Improvement with rifaximin over placebo, IBS-QOL: Sexual ([6]; Week 4, 1100 mg/d): 24.9%
Improvement with rifaximin over placebo, IBS-QOL: Social reaction ([6]; Week 4, 1100 mg/d): 31.6%
Treatment effect, Bloating (subjects with d-IBS [7]): 31.4%*, 31.4%
